According to patent US6933319B2, “Resorcinol derivatives” (Pfizer Inc., priority 1999, dated 2005):
pIC50: −log10 of the molar value.

Biological target: T1, human tyrosinase (Homo sapiens, UniProt P14679)
T1 construct: endogenous in cells; host or cells: SKMEL 188 human melanoma cell line (lysate)
T1 sequence (P14679 19-529): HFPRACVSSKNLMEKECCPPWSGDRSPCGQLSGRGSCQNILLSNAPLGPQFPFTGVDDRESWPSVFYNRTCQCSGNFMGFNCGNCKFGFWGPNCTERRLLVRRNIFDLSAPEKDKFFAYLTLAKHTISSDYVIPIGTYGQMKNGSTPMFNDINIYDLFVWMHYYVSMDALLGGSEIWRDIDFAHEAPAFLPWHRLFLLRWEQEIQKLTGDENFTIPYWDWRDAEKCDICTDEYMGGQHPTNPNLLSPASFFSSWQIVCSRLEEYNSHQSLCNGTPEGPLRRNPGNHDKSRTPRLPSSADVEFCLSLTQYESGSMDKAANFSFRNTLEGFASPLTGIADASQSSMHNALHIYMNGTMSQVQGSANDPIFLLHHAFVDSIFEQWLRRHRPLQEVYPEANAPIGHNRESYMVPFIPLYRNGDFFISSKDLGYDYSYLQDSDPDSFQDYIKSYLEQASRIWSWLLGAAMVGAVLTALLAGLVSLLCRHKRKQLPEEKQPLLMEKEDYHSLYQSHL
Assay: Tyrosinase (DOPA Oxidase) Assay Using Cell Lysate
Format: biochemical
Conditions: SKMEL 188 human melanoma cell lysate; L-DOPA 100 μg/ml; incubated 8 hrs; read at 405 nm
Protocol: 1. Tyrosinase (DOPA Oxidase) Assay Using Cell Lysate:
Human melanoma cell line, SKMEL 188 (licensed from Memorial Sloan-Kettering), is used in the cell lysate assay and the screen. In the assay, compounds and L-dihydroxyphenylalanine (L-DOPA) (100 μg/ml) are incubated with the cell lysates containing human tyrosinase for 8 hrs before the plates are read at 405 nm. Potency of the compounds in DOPA oxidase assay is correlated very well with that in tyrosine hydroxylase assay using ^3H-tyrosine as a substrate.

ON=C1CCC(c2ccc(O)cc2O)C1 (racemic) [Example 23, (±)-3-(2,4-Dihydroxyphenyl)cyclopentanone oxime]
pIC50: ~5.70
